Assay [1] has as its system rat adrenal medulla-derived pheochromocytoma cell PC12h. The experiment in a line: Inhibition of glutamic acid-induced cell death of PC12h cells (LDH activity of cell extract). Format: cell-based. As to conditions: for cell survival ratio: 1 mM glutamic acid, 72 hrs, survival in glutamic acid non-added plot = 100%, peptide not-added plot 34.0%. As for the experimental part: Inhibitory Activity of the Humanin-Like Peptide against Glutanic Acid-Induced Cell Death of Rat Adrenal Medulla-Derived Pheochromocytoma Cell PC12h
PC12h cells (supplied by Prof. Hiroshi Hatanaka, Institute for Protein Research, Osaka University; Hatanaka, H., Brain Research 222: 225–233, 1981) were plated at a density of 2×10^4 cells/cm^2 in collagen-coated 96-well plates (Iwaki) containing Dulbecco's modified Eagle's medium (hereinafter referred to as “DMEM”) containing 10% fetal bovine serum and 5% horse serum. After 24 hrs, the medium was exchanged for 100 μl of DMEM containing […] HEPES (pH 7.5). At the same time, various concentrations of the humanin-like peptide prepared in Example 2 (SEQ ID NO: 4) and glutamic acid to give a concentration of 1 mM were added to the medium. After 72 hrs, cells were lysed with 100 μl of phosphate buffered saline containing 0.2% Tween 20. Then, the lactate dehydrogenase (LDH) activity of the cell extract was determined with LDH Cytotoxic Test WAKO (Wako Purechemical Industries).

A further assay concerns nerve cells. As to conditions: induced by the addition of β amyloid; Proc. Natl. Acad. Sci. USA 98: 6336–6341, 2001; cited from earlier work.
In assay [2] the test system is nerve cells into which the causative gene of familial Alzheimer's disease is introduced. As to conditions: nerve cells with the causative gene of familial Alzheimer's disease introduced; Proc. Natl. Acad. Sci. USA 98: 6336–6341, 2001; cited from earlier work.

For “humanin-like peptide: polypeptide comprising the amino acid sequence as shown in SEQ ID NO: 4; 24 residues, 6 different from humanin; synthesised in Example 2 (MARRGFSCLLLSTTATDLPVKRRT; Human)”, the “glutamic acid-induced cell death” value in assay [1] (PC12h cells, conclusion in words) is “inhibited”. Moreover, the figures for the cell survival ratio in assay [1] (humanin-like peptide 1 μM) and in assay [1] (humanin-like peptide 10 μM) were 59.3% and 74.6%, respectively.
“humanin: peptide consisting of 24 residues (WO 01/21787), encoded by a gene cloned from the occipital lobe by Hashimoto et al. (MAPRGFSCLLLLTSEIDLPVKRRA; Humanin; UniProt Q8IVG9 1-24, looked up)”: the “death of nerve cells” value (in the assay on nerve cells; in assay [2]) was “inhibited” each time.
